Laboratory results as given in patent US11925622B2, “Role of novel carbazole linked 1, 2, 3- triazole analogs in alleviating methylglyoxal-mediated late diabetic vascular complications” (priority 2021, dated 2024).
Counter-ions that a name gives are not always drawn.

Columns and labels:
[1] = tested on: MGO-mediated BSA glycation; assay: In vitro antiglycation activity, MGO-BSA glycation assay (fluorescence); assay type: biochemical, bovine; conditions: for IC50 / % inhibition of MGO-BSA glycation: BSA 10 mg/mL, MGO 0.1 M, 24 h, 37° C.; for IC50: read-out: IC50 antiglycation, MGO-BSA model; for % inhibition of MGO-BSA glycation: compounds at 1 mM
Description: In vitro antiglycation activity: The MGO-BSA assay was performed as per optimized protocol of Jahan, H. et al with slight modifications. Initially, the antiglycation activity of parent compound carbazole (1), and carbazole-linked 1,2,3 triazoles 2-16 were identified at 1 mM using MGO-BSA model. […] BSA (10 mg/mL) incubated with MGO (0.1 M) for 24 h at 37° C. using phosphate-azide buffer (0.1 mM), served as a positive control. The wells with BSA only were taken as negative control. Whereas, rutin and quercetin were used as standard antiglycation agents. After 24 h of incubation, the fluorescence of each well was measured by using microplate reader (Varioskan lux, Thermo Fisher Scientific, 319 Scientific, USA) at 355 nm excitation, and 460 nm emission.
The % inhibition of MGO-BSA-mediated by carbazole-triazole derivatives was quantified by using the following formula: […]
The IC50 of active antiglycation compounds were identified by using EZ-FIT Enzyme Kinetics Program (Perrella Scientific Inc., Amherst, USA).

[2] = tested on: MGO-AGEs-induced ROS in THP-1 monocytes; assay: Anti-oxidation activity, DCFH-DA assay of MGO-AGEs-mediated ROS in monocytes; assay type: cell-based, human; conditions: for ROS (DCF fluorescence) in MGO-AGEs-treated monocytes: 100 μM (maximum inhibition), MGO-AGEs 50 μg/mL, 24 h
Description: Anti-oxidation activity: The measurement of effect of derivatives on AGEs-mediated ROS was based on the previously reported protocol of Soumyarani and colleagues with slight amendments. Initially, 1×10^6 monocytes/mL were loaded in sterile 96-well flat bottom black fluorescent plate, and pre-incubated with DCFH-DA (10 μM; Sigma-Aldrich Chemical Corporation, St. Louis, Missouri, USA) for 45 min at 37° C. Followed by the incubation, antiglycating, non-toxic carbazole-linked triazole derivatives (10, 30, 50, and 100 μM) were added to the wells for 1 h before co-treatment of cells with MGO-AGEs (50 μg/mL) for next 24 h. Next, the fluorometric measurement of converted DCFH into oxidized DCF product was carried out via spectrofluorimeter (Varioskanmicroplate reader, Thermo Fisher Scientific, USA) using 485 nm excitation and 520 nm emission wavelengths. Various controls were plated in each experiment. Wells containing culture RPMI with MGO-AGEs (50 μg/mL) and H2O2 ([…]) served as positive controls, while cells containing BSA were taken as negative control.

[3] = tested on: THP-1 cell line; assay: Cytotoxicity, WST-1 assay in human monocytes; assay type: cell-based; conditions: 24 h
Description: (§1) Cytotoxicity analysis: The cytotoxic profile of the compounds was determined by using the MTT assay in hepatocytes (HepG2 cell line), and WST-1 assay in human monocytes (THP-1 cell line) as per the manufacturer's protocols. […] Doxorubicin treated cells were used as a positive control, while cells with culture medium served as negative control. Wells with culture medium served as a blank. Followed by the incubation, 20 μL of MTT were added in each well. […] The absorbance was measured by using 540, and 450 nm, respectively ([…] reader, Thermo Fisher, 319 Scientific, USA).

[4] = tested on: HepG2 cell line; assay: Cytotoxicity, MTT assay in hepatocytes; assay type: cell-based, human; conditions: 24 h
Description: as §1

[5] = tested on: COX-2; assay: COX-2 protein levels analysis by immunoblotting; assay type: cell-based; conditions: human monocytes co-treated with MGO-AGEs 50 μg/mL; immunoblot densitometry
Description: COX-2 protein levels analysis: The 50 μg/mL of protein was loaded onto 10% sodium dodecyl sulfate-polymerized acrylamide gel electrophoresis (SDS-PAGE), and transferred to nitrocellulose membranes using power blotter XL System (Invitrogen; Thermo Fisher Scientific). Subsequently, the membrane was incubated for 1 h in 1% bovine serum albumin in PBS with 0.1% Tween-20 to block unspecified binding. The protein bands of the membrane were probed with primary monoclonal antibody COX-2 (Thermo Fisher Scientific, Waltham, MA, USA), and B-actin (Cloud-Clone Corp., Wuhan, China) for overnight at 4° C. Following incubation, the membrane was rinsed with tris buffer saline tween (TBST) three times, and then exposed to secondary antibody (HRP mouse mono anti-rabbit IgG; Abeam, Cambridge, UK) at room temperature for an hour. The washing was again carried three times with TBST, and then the membrane was exposed to ECL (Sangon biotech, Shanghai, China) to visualize the bands in Western Blot Detection System (Thermo Fisher Scientific, Waltham, MA, USA). The densitometry of immuno-positive COX-2, and β-actin bands was used by Image J.

[6] = tested on: NF-κB (p65) translocation in monocytes; assay: NF-κB (p65) translocation analysis by immunocytochemistry; assay type: cell-based, human; conditions: compounds 100 μM, 1 h pre-incubation; AGEs 50 μg/mL 1 h; MGO-AGEs control 75 RFU, BSA 11 RFU
Description: NF-κB (p^65) translocation analysis: The monocytes at the density of 1×10^6 cells/mL were pre-incubated with compounds (100 μM) for an h, and then co-incubated with AGEs (50 μg/mL) for another 1 h in a 24-well plate at 37° C. Following treatment, cells were fixed with paraformaldehyde (4% PFA; 10 min), and permeabilized with Triton X-100 (0.2%; 10 min). Next, the cells were rinsed with chilled PBS three times, and incubated with bovine serum albumin (1% BSA; 1 h) to block the non-specific binding sites. Cells were exposed to primary antibody against NF-κB (p 65) (1:300 dilution, Thermo Fisher Scientific, Waltham, MA, USA) for overnight at 4° C. Subsequently followed by washing the cells with chilled PBS three times, secondary antibody (polyclonal fluorescein isothiocyanate (FITC)-conjugated antibody) to rabbit IgG (1:1000 dilution, Abeam, Cambridge, UK) was used.
Nuclei were counterstained by using DAPI (Thermo Fisher Scientific, Waltham, MA, USA). The BSA-treated monocytes (50 μg/mL) had served as a negative control, while AGEs-treated monocytes (50 μg/mL) as positive control. All the images were taken by using Nikon microscope (Nikon, Tokyo, Japan). The quantification of images was carried out via ImageJ (Image processing and analysis in Java-NIH).

O=C(Cn1cc(Cn2c3ccccc3c3ccccc32)nn1)c1ccccc1 [Compound 2, 2-(4-((9H-Carbazole-9-yl)methyl)-1H-1,2,3-triazole-1-y1)-1-phenylethan-1-one]
antiglycation activity in MGO-BSA model (in words) [1]: weak potential
IC50 [1]: 797 ± 7 µM
% inhibition of MGO-BSA glycation [1]: 58%
antioxidant activity / ROS production inhibition (in words) ([2]; MGO-AGEs 50 μg/mL-treated THP-1 monocytes): inactive

Cc1ccccc1C(=O)Cn1cc(Cn2c3ccccc3c3ccccc32)nn1 [Compound 7, 2-(4-((9H-Carbazole-9-yl)methyl)-1H-1,2,3-triazole-1-y1)-1-(o-tolyl)ethan-1-one]
antiglycation activity in MGO-BSA model (in words) [1]: good activity
IC50 [1]: 275 ± 5 µM
% inhibition of MGO-BSA glycation [1]: 72%
% Inhibition ± SD THP-1 ([3]; 1 μM): 21 ± 8.8%
% Inhibition ± SD THP-1 ([3]; 10 μM): 27 ± 4.2%
% Inhibition ± SD THP-1 ([3]; 30 μM): 34.6 ± 6.5%
% Inhibition ± SD THP-1 ([3]; 50 μM): 32.1 ± 0.4%
% Inhibition ± SD THP-1 ([3]; 100 μM): 50.7 ± 5.3%
% Inhibition ± SD THP-1 ([3]; 250 μM): 80.8 ± 5.1%
% Inhibition ± SD THP-1 ([3]; 500 μM): 79.5 ± 5.8%
% Inhibition ± SD Hep-G2 ([4]; 1 μM): 12.3 ± 3.7%
% Inhibition ± SD Hep-G2 ([4]; 10 μM): 21.8 ± 4.7%
% Inhibition ± SD Hep-G2 ([4]; 30 μM): 21.8 ± 1.5%
% Inhibition ± SD Hep-G2 ([4]; 50 μM): 41.1 ± 3.5%
% Inhibition ± SD Hep-G2 ([4]; 100 μM): 50.3 ± 3.9%
% Inhibition ± SD Hep-G2 ([4]; 250 μM): 59.8 ± 15.5%
% Inhibition ± SD Hep-G2 ([4]; 500 μM): 78.4 ± 2.2%

Cc1cccc(C(=O)Cn2cc(Cn3c4ccccc4c4ccccc43)nn2)c1 [Compound 8, 2-(4-((9H-Carbazole-9-yl)methyl)-1H-1,2,3-triazole-1-y1)-1-(m-tolyl)ethan-1-one]
antiglycation activity in MGO-BSA model (in words) [1]: good activity
IC50 [1]: 130 ± 10 µM
% inhibition of MGO-BSA glycation [1]: 79%
% Inhibition ± SD THP-1 ([3]; 1 μM): 35.5 ± 1.1%
% Inhibition ± SD THP-1 ([3]; 10 μM): 42.1 ± 0.4%
% Inhibition ± SD THP-1 ([3]; 30 μM): 43 ± 4.3%
% Inhibition ± SD THP-1 ([3]; 50 μM): 43.9 ± 0.7%
% Inhibition ± SD THP-1 ([3]; 100 μM): 46.7 ± 2.0%
% Inhibition ± SD THP-1 ([3]; 250 μM): 73.6 ± 1.9%
% Inhibition ± SD THP-1 ([3]; 500 μM): 99.5 ± 0.3%
% Inhibition ± SD Hep-G2 ([4]; 1 μM): 6.4 ± 2.2%
% Inhibition ± SD Hep-G2 ([4]; 10 μM): 8.7 ± 4.8%
% Inhibition ± SD Hep-G2 ([4]; 30 μM): 47.3 ± 2.2%
% Inhibition ± SD Hep-G2 ([4]; 50 μM): 54.5 ± 0.7%
% Inhibition ± SD Hep-G2 ([4]; 100 μM): 66.9 ± 1.9%
% Inhibition ± SD Hep-G2 ([4]; 250 μM): 74.1 ± 1.9%
% Inhibition ± SD Hep-G2 ([4]; 500 μM): 86.7 ± 5.8%

O=C(Cn1cc(Cn2c3ccccc3c3ccccc32)nn1)c1cccc([N+](=O)[O-])c1 [Compound 11, 2-(4-((9H-Carbazole-9-yl)methyl)-1H-1,2,3-triazole-1-y1)-1-(3-nitrophenyl)ethan-1-one]
antiglycation activity in MGO-BSA model (in words) [1]: good activity
IC50 [1]: 147 ± 10 µM
% inhibition of MGO-BSA glycation [1]: 75.7%
ROS (DCF fluorescence) in MGO-AGEs-treated monocytes [2]: 9.06 RFU

c1ccc2c(c1)c1ccccc1n2Cc1cn(Cc2ccc(Cn3cc(Cn4c5ccccc5c5ccccc54)nn3)cc2)nn1 [Compound 15, 1,4-Bis ((4-((9H-carbazol-9-yl)methyl)-1H-1,2,3-triazol-1yl)methyl) benzene]
antiglycation activity in MGO-BSA model (in words) [1]: good activity
IC50 [1]: 333 ± 10 µM
% inhibition of MGO-BSA glycation [1]: 71%
ROS (DCF fluorescence) in MGO-AGEs-treated monocytes [2]: 10.6 RFU

COc1cccc2c1C(=O)c1c(O)c3c(c(O)c1C2=O)C[C@@](O)(C(=O)CO)C[C@@H]3OC1C[C@H](N)[C@H](O)[C@H](C)O1 (stereo partly drawn) [Doxorubicin, (7S,9S)-7-[(4S,5S,6S)-4-amino-5-hydroxy-6-methyloxan-2-yl]oxy-6,9,11-trihydroxy-9-(2-hydroxyacetyl)-4-methoxy-8,10-dihydro-7H-tetracene-5,12-dione; hydrochlorid, reference compound]
inhibition at 1 µM ([3]; Homo sapiens, THP-1, 1 μM, read-out: % Inhibition ± SD THP-1): 34.2%
inhibition at 10 µM ([3]; Homo sapiens, THP-1, 10 μM, read-out: % Inhibition ± SD THP-1): 60.2 ± 0.6%
inhibition at 30 µM ([3]; Homo sapiens, THP-1, 30 μM, read-out: % Inhibition ± SD THP-1): 63.2 ± 0.4%
inhibition at 50 µM ([3]; Homo sapiens, THP-1, 50 μM, read-out: % Inhibition ± SD THP-1): 64.5 ± 2.4%
inhibition at 100 µM ([3]; Homo sapiens, THP-1, 100 μM, read-out: % Inhibition ± SD THP-1): 67.3 ± 0.2%
inhibition at 250 µM ([3]; Homo sapiens, THP-1, 250 μM, read-out: % Inhibition ± SD THP-1): 76.4 ± 10%
inhibition at 500 µM ([3]; Homo sapiens, THP-1, 500 μM, read-out: % Inhibition ± SD THP-1): 94.3 ± 2.3%
inhibition at 1 µM ([4]; Homo sapiens, HepG2, 1 μM, read-out: % Inhibition ± SD Hep-G2): 30.4 ± 5.3%
inhibition at 10 µM ([4]; Homo sapiens, HepG2, 10 μM, read-out: % Inhibition ± SD Hep-G2): 28.3 ± 4.8%
inhibition at 30 µM ([4]; Homo sapiens, HepG2, 30 μM, read-out: % Inhibition ± SD Hep-G2): 64 ± 0.4%
inhibition at 50 µM ([4]; Homo sapiens, HepG2, 50 μM, read-out: % Inhibition ± SD Hep-G2): 58 ± 2.4%
inhibition at 100 µM ([4]; Homo sapiens, HepG2, 100 μM, read-out: % Inhibition ± SD Hep-G2): 62.6 ± 0.2%
inhibition at 250 µM ([4]; Homo sapiens, HepG2, 250 μM, read-out: % Inhibition ± SD Hep-G2): 69.8 ± 10%
inhibition at 500 µM ([4]; Homo sapiens, HepG2, 500 μM, read-out: % Inhibition ± SD Hep-G2): 87.1 ± 2.2%

O=c1c(O)c(-c2ccc(O)c(O)c2)oc2cc(O)cc(O)c12 [Quercetin, 2-(3,4-dihydroxyphenyl)-3,5,7-trihydroxy-4H-chromen-4-one, reference compound]
IC50 [1]: 138 ± 4 µM
% inhibition of MGO-BSA glycation [1]: 58%
ROS (DCF fluorescence) in MGO-AGEs-treated monocytes [2]: 8.39 RFU
reduction in COX-2 levels compared to MGO-BSA-treated cells [5]: 1.31 fold
NF-κB translocation in MGO-AGEs-treated monocytes [6]: 55 RFU

c1ccc2c(c1)[nH]c1ccccc12 [carbazole]
% inhibition of MGO-BSA glycation [1]: 36.7%
